Source: ChEMBL document CHEMBL5523737, “Novel Jatrophane Diterpenoids from Euphorbia esula Promotes Lipid Clearance by Transcriptional Regulation of PCSK9” (J Med Chem, 2024)
The source made the active and inactive calls. No cut-off for these calls is given here.

Experiments:
[1] = molecular target: Proprotein convertase subtilisin/kexin type 9 (Homo sapiens) (UniProt Q8NBP7); assay: Inhibition of PCSK9 transcription in human HepG2 cells at 5 uM by AlphaLISA method; assay type: cell-based
HepG2 = assay: Induction of LDL uptake in human HepG2 cells incubated for 3 hrs under dark condition by DiI-LDL DMEM staining based fluorescence microplate reader assay; assay type: functional, cell-based
[2] = Cytotoxicity against human HepG2 cells assessed as cell viability at 20 uM after 24 hrs by CCK8 assay; assay type: toxicity, cell-based; conditions: read-out: Activity
[3] = molecular target: Proprotein convertase subtilisin/kexin type 9 (Homo sapiens) (UniProt Q8NBP7); assay: Inhibition of PCSK9 transcription in human HepG2 cells by AlphaLISA method; assay type: cell-based

inhibition [1] [%]	inhibition [3]	SMILES	Activity (HepG2)	viability at 24 h, 20 µM [2] [%]
28	Dose-Dependent Effect	C=C1[C@@H](OC(C)=O)[C@H]2[C@@H](OC(C)=O)[C@](C)(OC(C)=O)C[C@]2(OC(C)=O)C(=O)[C@H](C)/C=C/C(C)(C)C(=O)[C@@H](OC(=O)C(C)C)[C@H]1OC(=O)CC	Active	> 95
3.1	–	C=C1[C@@H](OC(C)=O)[C@H]2[C@@H](OC(C)=O)[C@@H](C)C[C@]2(OC(C)=O)C(=O)[C@H](C)/C=C/C(C)(C)[C@H](OC(=O)c2ccccc2)[C@@H](OC(C)=O)[C@H]1OC(C)=O	–	–
22.3	Dose-Dependent Effect	C=C1[C@@H](OC(C)=O)[C@H]2[C@@H](OC(C)=O)[C@](C)(OC(C)=O)C[C@]2(OC(C)=O)C(=O)[C@H](C)/C=C/C(C)(C)C(=O)[C@@H](OC(C)=O)[C@H]1OC(=O)C(C)C	Active	> 95
35.7	Dose-Dependent Effect	C=C1[C@@H](OC(C)=O)[C@H]2[C@@H](OC(C)=O)[C@@H](C)C[C@]2(OC(C)=O)C(=O)[C@H](C)/C=C/C(C)(C)C(=O)C[C@H]1OC(=O)C(C)C	Active	> 95

The next lines start with the compound.

SMILES	inhibition [1] [%]	inhibition [3]	Activity (HepG2)	viability at 24 h, 20 µM [2] [%]
C=C1[C@@H](OC(C)=O)[C@H]2[C@@H](OC(C)=O)[C@](C)(OC(C)=O)C[C@]2(OC(C)=O)C(=O)[C@H](C)[C@]2(C)O[C@H]2C(C)(C)[C@H](OC(C)=O)[C@@H](OC(=O)C(C)C)[C@H]1OC(=O)C(C)C	0.1	–	–	–
C=C1[C@@H](OC(C)=O)[C@H]2[C@@H](OC(C)=O)[C@](C)(OC(C)=O)C[C@]2(OC(C)=O)C(=O)[C@H](C)[C@]2(C)O[C@H]2C(C)(C)[C@H](OC(C)=O)[C@@H](OC(C)=O)[C@H]1OC(=O)C(C)C	1.2	–	–	–
C=C1[C@@H](OC(C)=O)[C@H]2[C@@H](OC(C)=O)[C@](C)(OC(C)=O)C[C@]2(OC(C)=O)C(=O)[C@H](C)[C@]2(C)O[C@H]2C(C)(C)[C@H](OC(C)=O)[C@@H](OC(=O)c2ccccc2)[C@H]1OC(=O)C(C)C	0.7	–	–	–
